From patent US20250179061A1 (SIRONAX LTD., priority 2022, published 2025)

What follows are molecules tested on HT-29 cells (assay: HT-29 necroptosis cell viability assay (TNF-α/SMAC mimetic/zVAD-FMK, CellTiter-Glo)). Conditions: Homo sapiens, HT-29, HT-29 necroptosis cell viability assay; class symbols for IC50; read-out: Activity.
Format: cell-based
Procedure, shortened: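 HT-29 cells (~5,000/well, overnight) in FBS-free McCoy's 5A with TNF-α 10 ng/ml, SMAC mimetic 6 μM and zVAD-FMK 10 μM plus 10-point 1:3 compound titration, 20 h at 37°C. ATP measured by CellTiter-Glo luminescence; IC50 as geometric mean of duplicates.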
In the case of Cn1cc(C(C)(C)O)nc1Oc1ccc(-n2ncn(Cc3c(F)cccc3F)c2=O)cc1F [Example 131, 4-(2,6-difluorobenzyl)-2-(3-fluoro-4-((4-(2-hydroxypropan-2-yl)-1-methyl-1H-imidazol-2-yl)oxy)phenyl)-2,4-dihydro-3H-1,2,4-triazol-3-one], the IC50 is reported as over 10000 nM. Cn1c(C(C)(C)O)cnc1Oc1ccc(-n2ncn(Cc3c(F)cccc3F)c2=O)cc1F [Example 132, 4-(2,6-difluorobenzyl)-2-(3-fluoro-4-((5-(2-hydroxypropan-2-yl)-1-methyl-1H-imidazol-2-yl)oxy)phenyl)-2,4-dihydro-3H-1,2,4-triazol-3-one] gave an IC50 of 1000 to 10000 nM. Work on Cc1nc(C(C)(C)O)n(C)c1Oc1ccc(-n2ncn(Cc3c(F)cccc3F)c2=O)cc1F [Example 133, 4-(2,6-difluorobenzyl)-2-(3-fluoro-4-((2-(2-hydroxypropan-2-yl)-1,4-dimethyl-1H-imidazol-5-yl)oxy)phenyl)-2,4-dihydro-3H-1,2,4-triazol-3-one] yielded an IC50 of 100 to 1000 nM. In the case of Cn1nc(C(C)(C)O)cc1Oc1ccc(-n2ncn(Cc3c(F)cccc3F)c2=O)cc1F [Example 134, 4-(2,6-difluorobenzyl)-2-(3-fluoro-4-((3-(2-hydroxypropan-2-yl)-1-methyl-1H-pyrazol-5-yl)oxy)phenyl)-2,4-dihydro-3H-1,2,4-triazol-3-one], the IC50 is reported as under 100 nM. Work on Cc1nc(C(C)(C)O)c(C)n1Cc1ccc(-n2ncn(Cc3c(F)cccc3F)c2=O)cc1F [Example 135, 4-(2,6-difluorobenzyl)-2-(3-fluoro-4-((4-(2-hydroxypropan-2-yl)-2,5-dimethyl-1H-imidazol-1-yl)methyl)phenyl)-2,4-dihydro-3H-1,2,4-triazol-3-one] yielded an IC50 of 1000 to 10000 nM. For Cc1nc(C(C)(C)O)cn1Cc1ccc(-n2nc3n(c2=O)C(c2ccccc2)CC3)cc1F (stereo not drawn) [Example 136, 2-(3-fluoro-4-((4-(2-hydroxypropan-2-yl)-2-methyl-1H-imidazol-1-yl)methyl)phenyl)-5-phenyl-2,5,6,7-tetrahydro-3H-pyrrolo[2,1-c][1,2,4]triazol-3-one], the IC50 was 1000 to 10000 nM. Cc1nc(C(C)(C)O)cn1Cc1ccc(-n2ncn(Cc3c(F)cccc3F)c2=O)cc1F [Example 137, 4-(2,6-difluorobenzyl)-2-(3-fluoro-4-((4-(2-hydroxypropan-2-yl)-2-methyl-1H-imidazol-1-yl)methyl)phenyl)-2,4-dihydro-3H-1,2,4-triazol-3-one] showed an IC50 of 1000 to 10000 nM. For Cc1nc(CC(N)=O)c(Oc2ccc(-n3ncn(Cc4c(F)cccc4F)c3=O)cc2F)s1 [Example 138, 2-(5-(4-(4-(2,6-difluorobenzyl)-5-oxo-4,5-dihydro-1H-1,2,4-triazol-1-yl)-2-fluorophenoxy)-2-methylthiazol-4-yl)acetamide], the IC50 was under 100 nM. Molecule Cc1nc(CC#N)sc1Oc1ccc(-n2ncn(Cc3c(F)cccc3F)c2=O)cc1Cl [Example 139, 2-(5-(2-chloro-4-(4-(2,6-difluorobenzyl)-5-oxo-4,5-dihydro-1H-1,2,4-triazol-1-yl)phenoxy)-4-methylthiazol-2-yl)acetonitrile] has an IC50 of under 100 nM. Work on Cn1nc(CC#N)cc1Oc1ccc(-n2ncn(Cc3c(F)cccc3F)c2=O)cc1F [Example 140, 2-(5-(4-(4-(2,6-difluorobenzyl)-5-oxo-4,5-dihydro-1H-1,2,4-triazol-1-yl)-2-fluorophenoxy)-1-methyl-1H-pyrazol-3-yl)acetonitrile] yielded an IC50 of under 100 nM. With Cc1nc(CC#N)cn1Cc1ccc(-n2ncn(Cc3c(F)cccc3F)c2=O)cc1F [Example 141, 2-(1-(4-(4-(2,6-difluorobenzyl)-5-oxo-4,5-dihydro-1H-1,2,4-triazol-1-yl)-2-fluorobenzyl)-2-methyl-1H-imidazol-4-yl)acetonitrile] the IC50 was 100 to 1000 nM. Cc1nc(CC#N)c(C)n1Cc1ccc(-n2ncn(Cc3c(F)cccc3F)c2=O)cc1F [Example 142, 2-(1-(4-(4-(2,6-difluorobenzyl)-5-oxo-4,5-dihydro-1H-1,2,4-triazol-1-yl)-2-fluorobenzyl)-2,5-dimethyl-1H-imidazol-4-yl)acetonitrile] gave an IC50 of 1000 to 10000 nM.
